Results as given in ChEMBL document CHEMBL1134094, “Cell permeability as a parameter for lead generation in the protein Tyrosine kinase inhibition field” (2001).

Assays:
Caco-2 [1] = assay: Cell membrane permeability for the compound determined by human Caco-2 monolayer assay (10e-5 cm/min); type: functional
Caco-2 [2] = assay: Computed polar surface area (PSA) for the compound […]; type: functional
Caco-2 [3] = assay: Substrate affinity was determined; passive; type: functional, cell-based; conditions: Homo sapiens

SMILES	Pm (Caco-2 [1])	3D PSA (Caco-2 [2])	Affinity (Caco-2 [3])
COc1ccc(-c2cn(Cc3ccccc3)c3ccc(O)nc23)cc1	90.5 10e-5*cm/min	45	passive
Nc1ncnc2c1c(-c1ccccc1)cn2Cc1ccccc1		46.6	
Oc1ccc2c(n1)c(-c1ccccc1)cn2Cc1ccccc1		33.4	
COc1ccc(Cn2cc(-c3ccc(OC)cc3)c3c(N)ncnc32)cc1	61.9 10e-5*cm/min	69.2	passive
COc1ccc(-c2cn(Cc3ccccc3)c3ncnc(N)c23)cc1	78.2 10e-5*cm/min	58.2	passive
COc1ccc(Cn2cc(-c3ccc(OC)cc3)c3nc(O)ccc32)cc1	83 10e-5*cm/min	55.1	passive
